Test results taken from patent publication US20240398828A1, “HETERO-ATOM CONTAINING COMPOUNDS AND USES THEREOF” (Kumquat Biosciences Inc., priority 2021, published 2024).
pIC50: −log10 of the molar value.

Key:
PTPN2 (i.e., TC-PTP) = biological target: T1, PTPN2 (i.e., TC-PTP) (Homo sapiens, UniProt P17706); assay: Phosphatase activity assay (DiFMUP substrate), PTPN2; type: biochemical; details: compounds binned ≤1 uM or >1 uM
T1 sequence (P17706 1-415): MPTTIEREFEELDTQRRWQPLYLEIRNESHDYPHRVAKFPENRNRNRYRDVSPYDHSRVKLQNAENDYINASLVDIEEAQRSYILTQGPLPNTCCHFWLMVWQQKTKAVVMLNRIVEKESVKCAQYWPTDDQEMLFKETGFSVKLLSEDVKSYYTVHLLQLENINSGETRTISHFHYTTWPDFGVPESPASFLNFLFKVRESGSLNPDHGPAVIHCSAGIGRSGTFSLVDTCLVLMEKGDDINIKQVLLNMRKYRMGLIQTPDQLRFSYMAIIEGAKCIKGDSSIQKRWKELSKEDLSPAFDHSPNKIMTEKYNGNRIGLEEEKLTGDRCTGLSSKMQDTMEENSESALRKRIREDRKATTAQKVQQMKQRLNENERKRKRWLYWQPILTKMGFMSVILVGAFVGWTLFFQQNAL
Summary of the method: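 Continuous fluorogenic readout of DiFMUP dephosphorylation at room temperature, substrate set at Km for each phosphatase (about 45 μM in the PTPN2 assay). The buffer contains 1 mM DTT and 0.001% Tween-20, pH 7.5.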

PTPN1 (i.e., PTP1B) = biological target: T2, PTPN1 (i.e., PTP1B) (Homo sapiens, UniProt P18031); assay: Phosphatase activity assay (DiFMUP substrate), PTP1B; type: biochemical; details: compounds binned ≤1 uM or >1 uM
T2 sequence (P18031 1-435): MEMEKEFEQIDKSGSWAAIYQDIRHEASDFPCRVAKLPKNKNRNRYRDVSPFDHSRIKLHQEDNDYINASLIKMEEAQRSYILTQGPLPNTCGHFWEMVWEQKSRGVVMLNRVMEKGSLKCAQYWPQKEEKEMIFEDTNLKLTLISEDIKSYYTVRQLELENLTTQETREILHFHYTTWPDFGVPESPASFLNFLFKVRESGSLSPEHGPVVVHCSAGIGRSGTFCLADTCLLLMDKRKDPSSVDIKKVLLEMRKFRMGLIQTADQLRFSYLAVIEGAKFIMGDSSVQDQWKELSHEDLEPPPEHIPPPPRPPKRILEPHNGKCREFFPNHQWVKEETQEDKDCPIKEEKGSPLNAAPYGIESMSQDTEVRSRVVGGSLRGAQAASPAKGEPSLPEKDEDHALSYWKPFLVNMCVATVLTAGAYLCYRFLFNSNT
Summary of the method: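 First, serially diluted inhibitor is mixed about 2 minutes with enzyme in pH 7.5 HEPES/NaCl/EDTA/DTT/Tween-20 buffer. Next, DiFMUP is added at the enzyme's Km, approximately 45 μM for PTPN2. Finally, DiFMU appearance is read continuously at room temperature and rates are fitted for IC50.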

SMILES: Nc1nc2c(-c3ccc(O)c(N4CC(=O)NS4(=O)=O)c3F)ccc(F)c2s1 [Compound 151, 5-(3-(2-amino-7-fluorobenzo[d]thiazol-4-yl)-2-fluoro-6-hydroxyphenyl)-1,2,5-thiadiazolidin-3-one 1,1-dioxide]
- pIC50 (PTPN2 (i.e., TC-PTP)): < 6.00
- pIC50 (PTPN1 (i.e., PTP1B)): ≥ 6.00

SMILES: O=C1CN(c2c(O)ccc(-c3cnn(Cc4cccnc4)c3)c2F)S(=O)(=O)N1 [Compound 187, 5-(2-fluoro-6-hydroxy-3-(1-(pyridin-3-ylmethyl)-1H-pyrazol-4-yl)phenyl)-1,2,5-thiadiazolidin-3-one 1,1-dioxide]
- pIC50 (PTPN2 (i.e., TC-PTP)): ≥ 6.00
- pIC50 (PTPN1 (i.e., PTP1B)): ≥ 6.00

SMILES: O=C1CN(c2c(O)ccc(-c3cnn(Cc4ccc(F)c(F)c4)c3)c2F)S(=O)(=O)N1 [Compound 211, 5-(3-(1-(3,4-difluorobenzyl)-1H-pyrazol-4-yl)-2-fluoro-6-hydroxyphenyl)-1,2,5-thiadiazolidin-3-one 1,1-dioxide]
- pIC50 (PTPN2 (i.e., TC-PTP)): ≥ 6.00
- pIC50 (PTPN1 (i.e., PTP1B)): ≥ 6.00

SMILES: O=C1CN(c2c(O)ccc(-c3cn(C4CCCC4)cn3)c2F)S(=O)(=O)N1 [Compound 302, 5-(3-(1-cyclopentyl-1H-imidazol-4-yl)-2-fluoro-6-hydroxyphenyl)-1,2,5-thiadiazolidin-3-one 1,1-dioxide]
- pIC50 (PTPN2 (i.e., TC-PTP)): ≥ 6.00
- pIC50 (PTPN1 (i.e., PTP1B)): ≥ 6.00

SMILES: O=C1CN(c2c(O)ccc(-c3cn(C4CC4(F)F)[nH]c3=O)c2F)S(=O)(=O)N1 (stereo not shown) [Compound 500, 5-(3-(1-(2,2-difluorocyclopropyl)-3-oxo-2,3-dihydro-1H-pyrazol-4-yl)-2-fluoro-6-hydroxyphenyl)-1,2,5-thiadiazolidin-3-one 1,1-dioxide]
- pIC50 (PTPN2 (i.e., TC-PTP)): ≥ 6.00
- pIC50 (PTPN1 (i.e., PTP1B)): ≥ 6.00

SMILES: O=C1CN(c2c(O)ccc(-c3cnn(Cc4ccncc4)c3)c2F)S(=O)(=O)N1 [Compound 174, 5-(2-fluoro-6-hydroxy-3-(1-(pyridin-4-ylmethyl)-1H-pyrazol-4-yl)phenyl)-1,2,5-thiadiazolidin-3-one 1,1-dioxide]
- pIC50 (PTPN2 (i.e., TC-PTP)): ≥ 6.00
- pIC50 (PTPN1 (i.e., PTP1B)): ≥ 6.00

SMILES: O=C1CN(c2c(O)ccc(-c3ccc(NS(=O)(=O)C4CC4)cc3)c2F)S(=O)(=O)N1 [Compound 292, N-(3′-(1,1-dioxido-4-oxo-1,2,5-thiadiazolidin-2-yl)-2′-fluoro-4′-hydroxy-[1,1′-biphenyl]-4-yl)cyclopropanesulfonamide]
- pIC50 (PTPN2 (i.e., TC-PTP)): ≥ 6.00
- pIC50 (PTPN1 (i.e., PTP1B)): ≥ 6.00

SMILES: CC1(N)CCN(c2cc(-c3ccc(O)c(N4CC(=O)NS4(=O)=O)c3F)[nH]n2)C1 (stereo not shown) [Compound 279, 5-(3-(3-(3-amino-3-methylpyrrolidin-1-yl)-1H-pyrazol-5-yl)-2-fluoro-6-hydroxyphenyl)-1,2,5-thiadiazolidin-3-one 1,1-dioxide]
- pIC50 (PTPN2 (i.e., TC-PTP)): ≥ 6.00
- pIC50 (PTPN1 (i.e., PTP1B)): ≥ 6.00

SMILES: O=C1CN(c2c(O)ccc(C3CCN(S(=O)(=O)C4CC4)C3)c2F)S(=O)(=O)N1 (stereo not shown) [Compound 359, 5-(3-(1-(cyclopropylsulfonyl)pyrrolidin-3-yl)-2-fluoro-6-hydroxyphenyl)-1,2,5-thiadiazolidin-3-one 1,1-dioxide]
- pIC50 (PTPN2 (i.e., TC-PTP)): ≥ 6.00
- pIC50 (PTPN1 (i.e., PTP1B)): ≥ 6.00

SMILES: N#Cc1cccc(-n2cnc(-c3ccc(O)c(N4CC(=O)NS4(=O)=O)c3F)c2)c1 [Compound 361, 3-(4-(3-(1,1-dioxido-4-oxo-1,2,5-thiadiazolidin-2-yl)-2-fluoro-4-hydroxyphenyl)-1H-imidazol-1-yl)benzonitrile]
- pIC50 (PTPN2 (i.e., TC-PTP)): ≥ 6.00
- pIC50 (PTPN1 (i.e., PTP1B)): ≥ 6.00

SMILES: O=C1CN(c2c(O)ccc(-c3cnn(CC4(O)CCC4)c3)c2F)S(=O)(=O)N1 [Compound 307, 5-(2-fluoro-6-hydroxy-3-(1-((1-hydroxycyclobutyl)methyl)-1H-pyrazol-4-yl)phenyl)-1,2,5-thiadiazolidin-3-one 1,1-dioxide]
- pIC50 (PTPN2 (i.e., TC-PTP)): ≥ 6.00
- pIC50 (PTPN1 (i.e., PTP1B)): ≥ 6.00

SMILES: O=C1CN(c2c(O)ccc(-c3cnn(C4CC4)c3)c2F)S(=O)(=O)N1 [Compound 133, 5-(3-(1-cyclopropyl-1H-pyrazol-4-yl)-2-fluoro-6-hydroxyphenyl)-1,2,5-thiadiazolidin-3-one 1,1-dioxide]
- pIC50 (PTPN2 (i.e., TC-PTP)): ≥ 6.00
- pIC50 (PTPN1 (i.e., PTP1B)): ≥ 6.00

SMILES: CS(=O)(=O)n1nc(C2CC2)cc1-c1ccc(O)c(N2CC(=O)NS2(=O)=O)c1F [Compound 495, 5-(3-(3-cyclopropyl-1-(methylsulfonyl)-1H-pyrazol-5-yl)-2-fluoro-6-hydroxyphenyl)-1,2,5-thiadiazolidin-3-one 1,1-dioxide]
- pIC50 (PTPN2 (i.e., TC-PTP)): ≥ 6.00
- pIC50 (PTPN1 (i.e., PTP1B)): ≥ 6.00

SMILES: O=C1CN(c2c(O)ccc(-c3cnc(C4CC4)o3)c2F)S(=O)(=O)N1 [Compound 249, 5-(3-(2-cyclopropyloxazol-5-yl)-2-fluoro-6-hydroxyphenyl)-1,2,5-thiadiazolidin-3-one 1,1-dioxide]
- pIC50 (PTPN2 (i.e., TC-PTP)): ≥ 6.00
- pIC50 (PTPN1 (i.e., PTP1B)): ≥ 6.00

SMILES: O=C1CN(c2c(O)ccc(-c3cnn(C4CC5(CC5)C4)c3)c2F)S(=O)(=O)N1 [Compound 414, 5-(2-fluoro-6-hydroxy-3-(1-(spiro[2.3]hexan-5-yl)-1H-pyrazol-4-yl)phenyl)-1,2,5-thiadiazolidin-3-one 1,1-dioxide]
- pIC50 (PTPN2 (i.e., TC-PTP)): ≥ 6.00
- pIC50 (PTPN1 (i.e., PTP1B)): ≥ 6.00

SMILES: Cc1cc(-c2ccc(O)c(N3CC(=O)NS3(=O)=O)c2F)n(C)n1 [Compound 284, 5-(3-(1,3-dimethyl-1H-pyrazol-5-yl)-2-fluoro-6-hydroxyphenyl)-1,2,5-thiadiazolidin-3-one 1,1-dioxide]
- pIC50 (PTPN2 (i.e., TC-PTP)): ≥ 6.00
- pIC50 (PTPN1 (i.e., PTP1B)): ≥ 6.00

SMILES: CC(C)CC1C=C(c2ccc(O)c(N3CC(=O)NS3(=O)=O)c2F)CN1 (stereo not shown) [Compound 531, 5-(2-fluoro-6-hydroxy-3-(5-isobutyl-2,5-dihydro-1H-pyrrol-3-yl)phenyl)-1,2,5-thiadiazolidin-3-one 1,1-dioxide]
- pIC50 (PTPN2 (i.e., TC-PTP)): ≥ 6.00
- pIC50 (PTPN1 (i.e., PTP1B)): ≥ 6.00

SMILES: CCC1C=C(c2ccc(O)c(N3CC(=O)NS3(=O)=O)c2F)CN1 (stereo not shown) [Compound 493, 5-(3-(5-ethyl-2,5-dihydro-1H-pyrrol-3-yl)-2-fluoro-6-hydroxyphenyl)-1,2,5-thiadiazolidin-3-one 1,1-dioxide]
- pIC50 (PTPN2 (i.e., TC-PTP)): ≥ 6.00
- pIC50 (PTPN1 (i.e., PTP1B)): ≥ 6.00

SMILES: CCOc1ccc(-c2ccc(O)c(N3CC(=O)NS3(=O)=O)c2F)cn1 [Compound 226, 5-(3-(6-ethoxypyridin-3-yl)-2-fluoro-6-hydroxyphenyl)-1,2,5-thiadiazolidin-3-one 1,1-dioxide]
- pIC50 (PTPN2 (i.e., TC-PTP)): ≥ 6.00
- pIC50 (PTPN1 (i.e., PTP1B)): ≥ 6.00

SMILES: O=C1CN(c2c(O)ccc(-c3cc(C#Cc4cccnc4)n[nH]3)c2F)S(=O)(=O)N1 [Compound 434, 5-(2-fluoro-6-hydroxy-3-(3-(pyridin-3-ylethynyl)-1H-pyrazol-5-yl)phenyl)-1,2,5-thiadiazolidin-3-one 1,1-dioxide]
- pIC50 (PTPN2 (i.e., TC-PTP)): ≥ 6.00
- pIC50 (PTPN1 (i.e., PTP1B)): ≥ 6.00

SMILES: O=C1CN(c2c(O)ccc(-c3cnn(C(F)(F)C(F)F)c3)c2F)S(=O)(=O)N1 [Compound 410, 5-(2-fluoro-6-hydroxy-3-(1-(1,1,2,2-tetrafluoroethyl)-1H-pyrazol-4-yl)phenyl)-1,2,5-thiadiazolidin-3-one 1,1-dioxide]
- pIC50 (PTPN2 (i.e., TC-PTP)): ≥ 6.00
- pIC50 (PTPN1 (i.e., PTP1B)): ≥ 6.00

SMILES: O=C1CN(c2c(O)ccc(-c3cc(CCCC4CC4)n[nH]3)c2F)S(=O)(=O)N1 [Compound 464, 5-(3-(3-(3-cyclopropylpropyl)-1H-pyrazol-5-yl)-2-fluoro-6-hydroxyphenyl)-1,2,5-thiadiazolidin-3-one 1,1-dioxide]
- pIC50 (PTPN2 (i.e., TC-PTP)): ≥ 6.00
- pIC50 (PTPN1 (i.e., PTP1B)): ≥ 6.00

SMILES: Cn1nc(-c2ccc(O)c(N3CC(=O)NS3(=O)=O)c2F)cc1C1CC1(F)F (stereo not shown) [Compound 319, 5-(3-(5-(2,2-difluorocyclopropyl)-1-methyl-1H-pyrazol-3-yl)-2-fluoro-6-hydroxyphenyl)-1,2,5-thiadiazolidin-3-one 1,1-dioxide]
- pIC50 (PTPN2 (i.e., TC-PTP)): ≥ 6.00
- pIC50 (PTPN1 (i.e., PTP1B)): ≥ 6.00

SMILES: O=C1CN(c2c(O)ccc(-c3cnn(CC4CC4)c3)c2F)S(=O)(=O)N1 [Compound 131, 5-(3-(1-(cyclopropylmethyl)-1H-pyrazol-4-yl)-2-fluoro-6-hydroxyphenyl)-1,2,5-thiadiazolidin-3-one 1,1-dioxide]
- pIC50 (PTPN2 (i.e., TC-PTP)): ≥ 6.00
- pIC50 (PTPN1 (i.e., PTP1B)): ≥ 6.00

SMILES: CC1CC(c2ccc(O)c(N3CC(=O)NS3(=O)=O)c2F)CN1 (stereo not shown) [Compound 407, 5-(2-fluoro-6-hydroxy-3-(5-methylpyrrolidin-3-yl)phenyl)-1,2,5-thiadiazolidin-3-one 1,1-dioxide]
- pIC50 (PTPN2 (i.e., TC-PTP)): ≥ 6.00
- pIC50 (PTPN1 (i.e., PTP1B)): ≥ 6.00

SMILES: O=C1CN(c2c(O)ccc(-c3cnn(C4CC5(CCC5)C4)c3)c2F)S(=O)(=O)N1 [Compound 242, 5-(2-fluoro-6-hydroxy-3-(1-(spiro[3.3]heptan-2-yl)-1H-pyrazol-4-yl)phenyl)-1,2,5-thiadiazolidin-3-one 1,1-dioxide]
- pIC50 (PTPN2 (i.e., TC-PTP)): ≥ 6.00
- pIC50 (PTPN1 (i.e., PTP1B)): ≥ 6.00
